Measured values reported in PubChem BioAssay AID2078 (The Scripps Research Institute Molecular Screening Center, 2009).

Test system: Cytotoxicity
Experiment: STAT3 inhibitors, late-stage profile, late-stage follow-up, cell-based, STAT1 panel, qPCR, cytotoxicity (AID 2078)
Settings: STAT3/STAT1 inhibition panel, cell reporter assay

Structure (SMILES): c1ccc(CC2CCN(c3ncnc4sccc34)CC2)cc1
- CC50: > 55.7 µM
